Data set [1] has as its system U87. The experiment in a line: Viability assay (CellTiter 96 Aqueous1), cell growth inhibition. The following applies: Homo sapiens, U-87 MG. In kind it is cell-based. As for the experimental part:
(§1) Cell lines and reagents. The tumor cell lines used for the in vitro evaluation of cell growth inhibition by dihydroxypirolidine derivatives were U87 (glioblastoma), PC3 (prostate cancer), A549 (lung carcinoma), MDA-MB231, MCF7, BT474, and SKBR3 (breast cancer). Cells were grown in 10-cm culture dishes with McCoy medium containing 10% fetal calf serum (FCS) and antibiotics at 37°C and 5% CO2. The dihydroxypirolidine derivatives CB161, CB181, and CB183 were weighted and dissolved in DMSO to prepare a stock solution concentrated 100 mM.
(§2) Viability assays. For the viability assays, 5 x 10^4 cells/well were plated in 200 µl medium in 96 well plates. 48 hours later, the dihydroxypirolidine derivatives were added to the wells at concentrations ranging between 10^-2 and 400 µM, such that the vehicle DMSO never exceeded 0.4%. Each drug concentration was tested in duplicate. Viability was determined 72 hours later using CellTiter 96 Aqueous1 (Promega) according to the manufacturer's instructions. Incubation times with CellTiter96 Aqueous1 ranged between 2 and 4 hours. Plates were read with a spectrophotometer (Labsystems iEMS Reader MF) at 490 nm wave length. IC50s were estimated using GraphPad Prism4.

Data set [2] has as its system seven established human tumor cell lines. The experiment in a line: Viability assay, panel of seven tumor cell lines. It is filed as cell-based. The following applies: all the cell lines tested. As for the experimental part: as §1, §2
For data set [3], the system named is BT474. The experiment in a line: Viability assay (CellTiter 96 Aqueous1), cell growth inhibition. It is filed as cell-based. The following applies: Homo sapiens, BT-474; BT474 (breast cancer), viability 72 hours after addition. As for the experimental part:
as §1, §2

For data set [4], the system named is SKBR3. The data set is described as above. It is filed as cell-based. The following applies: Homo sapiens, SK-BR-3; SKBR3 (breast cancer), viability 72 hours after addition. As for the experimental part:
as §1, §2

For data set [5], the system named is PC3. The description is as above. It is filed as cell-based. The following applies: Homo sapiens, PC-3; PC3 (prostate cancer), viability 72 hours after addition. Here is the method: as §1, §2
Data set [6] concerns MCF7. The data set is described as above. It is filed as cell-based. The following applies: Homo sapiens; MCF7 (breast cancer), viability 72 hours after addition. Here is the method:
as §1, §2

The subject of data set [7] is MDA-MB-231. Described as above. It is filed as cell-based. The following applies: Homo sapiens; MDA-MB-231 (breast cancer), viability 72 hours after addition. Here is the method: as §1, §2
In data set [8] the test system is A549. Described as above. In kind it is cell-based. The following applies: Homo sapiens; A549 (lung carcinoma), viability 72 hours after addition. As for the experimental part: as §1, §2
The subject of data set [9] is human glioblastoma cells. The following applies: S. Favre et al., Heterocycles 2006; cited from earlier work.
The test system of data set [10] is glioblastoma cell growth. The following applies: H. Fiaux et al., J. Med. Chem. 2005; cited from earlier work.
Setting [11] is: refers to Figure 8 (U87 glioblastoma), read-out: IC50s (growth inhibition effects).

Molecules are shown by their SMILES. Like-named read-outs stand apart in the source and are kept apart here.

As to `OC[C@H](NC[C@H]1NC[C@H](O)[C@@H]1O)c1ccc(-c2ccccc2)cc1` [CB161], the IC50 in [1] (setting [11]) was over 200 µM.

Regarding `C=CCOc1ccc([C@H](CO)NC[C@H]2NC[C@H](O)[C@@H]2O)cc1` [CB181, (2R,3R,4S)-2{{{(1R)-2-hydroxy-1-[4-(prop-2-enyloxy)phenyl]ethyl}amino}methyl} pyrrolidine-3,4-diol], in data set [1] (setting [11]), the IC50 was over 200 µM.

For the compound `OC[C@H](NC[C@H]1NC[C@H](O)[C@@H]1O)c1ccc(-c2ccc(C(F)(F)F)cc2)cc1` [CB183, (2R,3R,4S)-2-{{{(1R)-2-hydroxy-1-[4'-(trifluoromethyl)-[1,1'-biphenyl]-4-1]ethyl}amino}methyl}pyrrolidine-3,4-diol], the “potent cytotoxic activity for concentrations” value in data set [2] was under 200 µM. Further, the IC50 in data set [3] stood at 93.3 µM; in [4] it was 48.3 µM; in data set [5] it was 132 µM; in data set [6], 76.7 µM; in data set [7], 65.8 µM; in [8], 152 µM. Besides, the IC50 in [1] (U87 (glioblastoma), viability 72 hours after addition, read-out: IC50) was 80 µM.

`O=C(NC[C@H](NC[C@H]1NC[C@H](O)[C@@H]1O)c1ccccc1)c1cccc(Br)c1` [N-[(2R)-2-({[(2R,3R,4S)-3,4-dihydroxypyrrolidin-2-yl]methyl}amino)-2-phenylethyl]-3-bromobenz-amide]: the “inhibition of human glioblastoma cells” value in data set [9] is “convincing inhibition”.

For `O[C@H]1[C@H]2[C@H](O)CCCN2C[C@H]1O` [swainsonine], the “inhibitory effect on glioblastoma cell growth” value in [10] is on record as “only little inhibitory effect”.

The values are drawn from patent EP2067771A1, “Derivatives of Dihydroxypyrrolidine as Anti-Cancer Compounds” (EPFL Ecole Polytechnique Fédérale de Lausanne, priority 2007, dated 2009).
